{"source": "patent US4310590A", "about": "(priority 1979, dated 1982)", "key": {"Erysiphe polygoni": {"system": "Erysiphe polygoni", "assay": "whole plant or invertebrate", "type": "in vivo", "details": "read-out: Disease Control Level, BPM"}, "A. niger": {"system": "A. niger", "assay": "Serial Dilution Test (Broth Titer Test), antifungal, A. niger", "type": "cell-based, Aspergillus niger", "details": "Aspergillus niger, in vitro serial dilution test, read-out: SDT, MIC", "procedure": "(§1) Antibacterial and antifungal activity were evaluated by the Serial Dilution Test (Broth Titer Test) wherein a series of broths containing varying dilutions of a test compound and an organism are halved starting with 1:1,000. The values shown represent the maximum dilution in parts per million at which the compound under evaluation renders complete control of the organism. Pseudomonas aeruginosa (P), Staphylococcus aureus (S), and Escherichia coli (E) were the bacterial organisms employed in this test, and the fungi employed were Aspergillus niger (A) and Rhizopus stolonifer (R).\n(§2) ^a In vitro serial dilution test (SDT), minimum inhibitory\n(§3) concentrations (MIC) against E = E. coli, P = Ps. aeruginosa, S =\n(§4) Staphylococcus aureus, A = A. niger, and R = Rhizopus stolonifer are give\n(§5) in parts per million of a biocide."}, "Botrytis cinerea": {"system": "Botrytis cinerea", "assay": "whole plant or invertebrate", "type": "in vivo", "details": "Botrytis cinerea; 300 ppm; read-out: Disease Control Level, BOT"}, "Plasmopora viticola": {"system": "Plasmopora viticola", "assay": "whole plant or invertebrate", "type": "in vivo", "details": "300 ppm; read-out: Disease Control Level, GDM"}, "Ps. aeruginosa": {"system": "Ps. aeruginosa", "assay": "Serial Dilution Test (Broth Titer Test), antibacterial, Ps. aeruginosa", "type": "cell-based, Pseudomonas aeruginosa", "details": "Pseudomonas aeruginosa, read-out: SDT, MIC", "procedure": "as §1, §2, §3, §4, §5"}, "Rhizopus stolonifer": {"system": "Rhizopus stolonifer", "assay": "Serial Dilution Test (Broth Titer Test), antifungal, Rhizopus stolonifer", "type": "cell-based", "details": "in vitro serial dilution test; R = Rhizopus stolonifer; read-out: SDT, MIC", "procedure": "as §1, §2, §3, §4, §5"}, "E. coli": {"system": "E. coli", "assay": "Serial Dilution Test (Broth Titer Test), antibacterial, E. coli", "type": "cell-based, Escherichia coli", "details": "Escherichia coli, read-out: SDT, MIC", "procedure": "as §1, §2, §3, §4, §5"}, "[1]": {"system": "Puccinia graminis f. sp. tritici", "assay": "whole plant or invertebrate", "type": "in vivo, Puccinia graminis f. sp. tritici race 15B-2", "details": "Puccinia graminis, read-out: Disease Control Level, WSR"}, "Piricularia oryzae": {"system": "Piricularia oryzae", "assay": "whole plant or invertebrate", "type": "in vivo"}, "Phytophthora infestans": {"system": "Phytophthora infestans", "assay": "whole plant or invertebrate", "type": "in vivo", "details": "Phytophthora infestans, in Solanum lycopersicum, read-out: Disease Control Level, TLB"}, "Helminthosporium teres": {"system": "Helminthosporium teres", "assay": "whole plant or invertebrate", "type": "in vivo", "details": "Pyrenophora teres, in Hordeum vulgare; 300 ppm; read-out: Disease Control Level, BH"}, "Staphylococcus aureus": {"system": "Staphylococcus aureus", "assay": "Serial Dilution Test (Broth Titer Test), antibacterial, Staphylococcus aureus", "type": "cell-based", "details": "Staphylococcus aureus, read-out: SDT, MIC", "procedure": "as §1, §2, §3, §4, §5"}, "[2]": {"details": "Pyricularia oryzae, read-out: Disease Control Level, RB"}}, "data": [{"smiles": "O=c1cc(N2CCCCC2)sn1CCc1ccccc1", "note": "[Example 14, 5-Piperidino-2-phenethyl-4-isothiazolin-3-one]", "values": [{"measurement": "pest or weed control at 300 ppm", "setting": "Erysiphe polygoni", "value": 50, "unit": "%"}, {"measurement": "MIC", "setting": "A. niger", "value": 250, "unit": "µg/mL"}, {"measurement": "pest or weed control at 300 ppm", "setting": "Botrytis cinerea", "value": 50, "unit": "%"}, {"measurement": "pest or weed control at 300 ppm", "setting": "Plasmopora viticola", "value": 50, "unit": "%"}, {"measurement": "MIC", "setting": "Ps. aeruginosa", "value": 500, "unit": "µg/mL"}, {"measurement": "MIC", "setting": "Rhizopus stolonifer", "value": 125, "unit": "µg/mL"}, {"measurement": "MIC", "setting": "E. coli", "value": 500, "unit": "µg/mL"}, {"measurement": "pest or weed control at 38 ppm", "setting": "[1]", "value": 50, "unit": "%"}, {"measurement": "pest or weed control at 75 ppm", "setting": "[1]", "value": 50, "unit": "%"}, {"measurement": "pest or weed control at 150 ppm", "setting": "[1]", "value": 50, "unit": "%"}, {"measurement": "pest or weed control at 300 ppm", "setting": "[1]", "value": "97 to 100", "unit": "%"}, {"measurement": "Disease Control Level, RB", "setting": "Piricularia oryzae; 150 ppm", "value": "A/E"}, {"measurement": "pest or weed control at 38 ppm", "setting": "Piricularia oryzae; [2]", "value": 50, "unit": "%"}, {"measurement": "pest or weed control at 75 ppm", "setting": "Piricularia oryzae; [2]", "value": "97 to 100", "unit": "%"}, {"measurement": "pest or weed control at 300 ppm", "setting": "Piricularia oryzae; [2]", "value": "97 to 100", "unit": "%"}, {"measurement": "pest or weed control at 300 ppm", "setting": "Phytophthora infestans", "value": 50, "unit": "%"}, {"measurement": "pest or weed control at 300 ppm", "setting": "Helminthosporium teres", "value": 50, "unit": "%"}, {"measurement": "MIC", "setting": "Staphylococcus aureus", "value": 500, "unit": "µg/mL"}]}]}
